Measurements taken from patent US20090143416A1, “Method of Inducing Tolerance of Plants Against Bacterioses” (priority 2006, published 2009).

Legend:
Erwinia carotovora = experiment: Preventive action on potatoes against Erwinia carotovora (field trial); format: in vivo; settings: under the trial conditions (potato field trial); assumed, not tested alone
Description: (§1) The visually determined percentages of infected leaf areas were converted into efficacies in % of the untreated control:
(§2) An efficacy of 0 means that the infection level of the treated plants corresponds to that of the untreated control plants; an efficacy of 100 means that the treated plants were not infected.

Xathomonas ssp = experiment: Preventive action on tomatoes against Xathomonas ssp (field trial); format: in vivo; settings: under the trial conditions (tomato field trial); assumed, not tested alone
Protocol: The active compounds used were applied as commercially available formulations.
as §1
The efficacy (E) is calculated as follows using Abbot's formula: […]
α corresponds to the fungal infection of the treated plants in % and β corresponds to the fungal infection of the untreated (control) plants in %
as §2
The trial was conducted under field conditions. Tomato plants of variety Carmen at a height of app. 10 cm were planted and grown under standard conditions with adequate supply of water and nutrients. After 18 days a first application of active compounds was made, which was repeated five times every 5 to 8 days. No other compounds were applied for pathogen control. Infection with pathogens occurred. Each treatment consisted of four replicants in a randomized block design. The disease incidences were evaluated 46 days after the first application (Xathomonas ssp.).

[Cl-].[Cu+2].[Cu+2].[OH-].[OH-].[OH-] [copper, copper oxychloride]
efficacy against Erwinia carotovora (Erwinia carotovora): very close to zero
efficacy against Xathomonas (Xathomonas ssp): very close to zero
